How the values were obtained:
[1] = test system: NIH/3T3 cells; test: Brightfield imaging and F-actin staining of drug treated cells; type: cell-based
[2] = test system: integrin mediated tension in NIH/3T3 cells; test: Dose-dependent inhibition of integrin mediated tension quantified by MCR; type: cell-based; conditions: NIH/3T3 cells pretreated 15 min with blebbistatin (10 nm-10 mm as printed), 1 h on 12 pN duplexes
Protocol: The non-muscle myosin II inhibitor blebbistatin, which diminishes myosin contractility and thus reduces forces transmitted by focal adhesions, was investigated. NIH/3T3 cells were pretreated with a range of blebbistatin concentrations (10 nm-[…]) for 15 min. The cells onto the surface were incubated with the 12 pN duplexes for 1 h, which was then followed by MCR readout. […] The MCR signal is a direct readout of integrin tension, measuring the dose-dependent dissipation of actomyosin contractile forces.
Cells were incubated with the cRGDfK-labelled duplex surfaces in DMEM for 1 h to promote cell adhesion. Surfaces were then washed with 0.1×SSC. Subsequently, surfaces were incubated in 1× CutSmart® buffer (20 mM Tris-acetate, 10 mM Mg(OAc)2, 50 mM KOAc, 100 μg/mL BSA, pH 7.9) with 100 nM circular template and 1 U/μL T4 ligase at 37° C. for 2 h to ensure complete ligation. Then, 250 μM dNTPs and 0.1 U/μL Phi 29 polymerase were added to the solutions and mixed well. The surfaces were incubated at 37° C. for 90 min to allow for rolling circle amplification. […] Finally, the surface was incubated with 100 nM Cy3B-FISH probe in hybridization buffer (0.5 M NaCl, 20 mM Tris-HCl, 20 mM EDTA, and 0.01% Tween, pH=7.4) at 37° C. for 30 min, rinsed with three washes of 0.1×TNT/0.1% SDS and subjected to fluorescence imaging. […]

Cc1ccc2c(c1)C(=O)C1(O)CCN(c3ccccc3)C1=N2 (stereo not drawn) [blebbistatin]
F-actin staining ([1]; highest blebbistatin doses): more disorganized and shorter actin filaments | cell shape by brightfield imaging ([1]; increasing drug dose): cells become more rounded with increasing drug dose | MCR signal [2]: dose-dependent relationship
